# From US20080039438A1, “1B-Methylcarbapenem Derivative and Process for the Preparation Thereof” (Korea Institute of Science and Technology, priority 2004, published 2008)
# Key:
# Assay type in all cases: cell-based
# [1] = tested on: Pseudomonas aeruginosa 9027; assay: MIC against standard strains (agar dilution); settings: standard strain Pseudomonas aeruginosa 9027, 37° C., 18 to 20 hours, read-out: Minimum Inhibitory Concentration (MIC)
# [2] = tested on: Methicillin-sensitive Staphylococcus aureus; assay: MIC against clinically isolated aerobic Gram-positive strains; settings: 33 strains
# [3] = tested on: Streptococcus pyogenes 308A; assay: MIC against standard strains (agar dilution); settings: standard strain Streptococcus pyogenes 308A, 37° C., 18 to 20 hours, read-out: Minimum Inhibitory Concentration (MIC)
# Providentia sp. = assay: MIC against clinically isolated aerobic Gram-negative strains; settings: 13 strains
# Klebsiella pneumoniae = assay: as above; settings: 30 strains
# [4] = tested on: Enterobacter cloacae 1321E; assay: MIC against standard strains (agar dilution); settings: standard strain Enterobacter cloacae 1321E, 37° C., 18 to 20 hours, read-out: Minimum Inhibitory Concentration (MIC)
# Pseudomonas aeruginosa = assay: MIC against clinically isolated aerobic Gram-negative strains; settings: 60 strains
# Morganella morganii = assay: as above; settings: 15 strains
# Enterobacter aerogenes = assay: as above; settings: 14 strains
# [5] = tested on: Staphylococcus aureus 503; assay: MIC against standard strains (agar dilution); settings: standard strain Staphylococcus aureus 503, 37° C., 18 to 20 hours, read-out: Minimum Inhibitory Concentration (MIC)
# Haemophilus influenzae = assay: MIC against clinically isolated aerobic Gram-negative strains; settings: 24 strains
# Klebsiella cxytoca 1082E = assay: MIC against standard strains (agar dilution); settings: standard strain Klebsiella cxytoca 1082E, 37° C., 18 to 20 hours, read-out: Minimum Inhibitory Concentration (MIC)
# Bacteroides fragilis = assay: MIC against clinically isolated anaerobic Gram-negative strains; settings: 34 strains
# Enterobacter cloacae P99 = assay: MIC against standard strains (agar dilution); settings: standard strain Enterobacter cloacae P99, 37° C., 18 to 20 hours, read-out: Minimum Inhibitory Concentration (MIC)
# Bacteroides spp. = assay: MIC against clinically isolated anaerobic Gram-negative strains; settings: 11 strains
# Clostridium perfringens = assay: microbe, parasite or virus in culture; settings: Clostridium perfringens
# Citrobacter freundii = assay: MIC against clinically isolated aerobic Gram-negative strains; settings: 14 strains
# Escherichia coli 1507E = assay: MIC against standard strains (agar dilution); settings: standard strain Escherichia coli 1507E, 37° C., 18 to 20 hours, read-out: Minimum Inhibitory Concentration (MIC)
# Streptococcus agalactiae = assay: MIC against clinically isolated aerobic Gram-positive strains; settings: 15 strains
# [6] = tested on: Pseudomonas aeruginosa 1771M; assay: MIC against standard strains (agar dilution); settings: read-out: Minimum Inhibitory Concentration (MIC)
# Escherichia coli = assay: MIC against clinically isolated aerobic Gram-negative strains; settings: 30 strains
# [7] = tested on: Staphylococcus aureus 285; assay: MIC against standard strains (agar dilution); settings: standard strain Staphylococcus aureus 285, 37° C., 18 to 20 hours, read-out: Minimum Inhibitory Concentration (MIC)
# Escherichia coli 078 = assay: MIC against standard strains (agar dilution); settings: standard strain Escherichia coli 078, 37° C., 18 to 20 hours, read-out: Minimum Inhibitory Concentration (MIC)
# [8] = tested on: Pseudomonas aeruginosa 1771; assay: MIC against standard strains (agar dilution); settings: standard strain Pseudomonas aeruginosa 1771, 37° C., 18 to 20 hours, read-out: Minimum Inhibitory Concentration (MIC)
# [9] = tested on: Streptococcus pyogenes 77A; assay: MIC against standard strains (agar dilution); settings: standard strain Streptococcus pyogenes 77A, 37° C., 18 to 20 hours, read-out: Minimum Inhibitory Concentration (MIC)
# Salmonella typhimurium = assay: MIC against standard strains (agar dilution); settings: Salmonella enterica, standard strain Salmonella typhimurium, 37° C., 18 to 20 hours, read-out: Minimum Inhibitory Concentration (MIC)
# Clostridium difficile = assay: MIC against clinically isolated anaerobic Gram-positive strains; settings: 15 strains
# Protocol: The in vitro antibacterial activities of the sodium 3-carboxylate compound of the present invention prepared in the above Example were measured against standard strains (Table 1), clinically isolated aerobic Gram-positive strains (Table 2), clinically isolated aerobic Gram-negative strains (Table 3), clinically isolated anaerobic Gram-positive strains (Table 4) and clinically isolated anaerobic Gram-negative strains (Table 5) using Gram-positive bacteria such as Streptococcus and Staphylococcus, Gram-negative bacteria such as Escherichia, Salmonella, Krebsiella and Enterobacter. Imipenem (IPM), meropenem (MPM) and ertapenem (EPM) were used as control groups.
# The results are shown in Tables 1 to 5, and MIC50 and MIC90 represent the concentrations at which the test strain's growth was inhibited to the extents of 50% and 90%, respectively.
# Moraxella catarrhalis = assay: MIC against clinically isolated aerobic Gram-negative strains; settings: 24 strains
structure (smiles),measurement,setting,value
"C[C@@H](O)[C@H]1C(=O)N2C(C(=O)O)=C(S[C@@H]3CN[C@H](/C=C/c4cc(C(=O)O)no4)C3)[C@H](C)[C@H]12 [Example, (1R,5S,6S,8R,3′S,5′S)-2-{5′-[(E)-2-(3-carboxylic acid or sodium carboxylate-5-isoxazolo)ethenyl]pyrrolidin-3′-ylthio}-6-(1-hydroxyethyl)-1-methylcarbapen-2-em-3-carboxylic acid]",MIC,[1],0.098 µg/mL
same,MIC50,[2],0.12 µg/mL
same,MIC90,[2],0.12 µg/mL
same,MIC Range,[2],0.06 to 0.12 µg/mL
same,MIC,[3],0.049 µg/mL
same,MIC50,Providentia sp.,0.06 µg/mL
same,MIC90,Providentia sp.,8 µg/mL
same,MIC Range,Providentia sp.,0.008 to 8 µg/mL
same,MIC50,Klebsiella pneumoniae,0.03 µg/mL
same,MIC90,Klebsiella pneumoniae,0.12 µg/mL
same,MIC Range,Klebsiella pneumoniae,0.015 to 0.25 µg/mL
same,MIC,[4],0.025 µg/mL
same,MIC50,Pseudomonas aeruginosa,4 µg/mL
same,MIC90,Pseudomonas aeruginosa,64 µg/mL
same,MIC Range,Pseudomonas aeruginosa,0.06 to 128 µg/mL
same,MIC50,Morganella morganii,0.03 µg/mL
same,MIC90,Morganella morganii,0.06 µg/mL
same,MIC Range,Morganella morganii,0.03 to 0.12 µg/mL
same,MIC Range,Enterobacter aerogenes,0.015 to 0.12 µg/mL
same,MIC50,Enterobacter aerogenes; Klebsiella aerogenes,0.06 µg/mL
same,MIC90,Enterobacter aerogenes; Klebsiella aerogenes,0.25 µg/mL
same,MIC,[5],0.098 µg/mL
same,MIC50,Haemophilus influenzae,0.25 µg/mL
same,MIC90,Haemophilus influenzae,4 µg/mL
same,MIC Range,Haemophilus influenzae,0.25 to 8 µg/mL
same,MIC,Klebsiella cxytoca 1082E,0.049 µg/mL
same,MIC50,Bacteroides fragilis,0.5 µg/mL
same,MIC90,Bacteroides fragilis,1 µg/mL
same,MIC Range,Bacteroides fragilis,0.25 to 4 µg/mL
same,MIC,Enterobacter cloacae P99,0.098 µg/mL
same,MIC50,Bacteroides spp.,1 µg/mL
same,MIC90,Bacteroides spp.,1 µg/mL
same,MIC Range,Bacteroides spp.,1 to 2 µg/mL
same,MIC50,Clostridium perfringens,0.06 µg/mL
same,MIC90,Clostridium perfringens,0.12 µg/mL
same,MIC50,Citrobacter freundii,0.03 µg/mL
same,MIC90,Citrobacter freundii,0.12 µg/mL
same,MIC Range,Citrobacter freundii,0.015 to 0.25 µg/mL
same,MIC,Escherichia coli 1507E,0.025 µg/mL
same,MIC50,Streptococcus agalactiae,0.008 µg/mL
same,MIC90,Streptococcus agalactiae,0.015 µg/mL
same,MIC Range,Streptococcus agalactiae,0.008 to 0.015 µg/mL
same,MIC,[6],0.391 µg/mL
same,MIC50,Escherichia coli,0.03 µg/mL
same,MIC90,Escherichia coli,0.25 µg/mL
same,MIC Range,Escherichia coli,0.008 to 2 µg/mL
same,MIC,[7],0.195 µg/mL
same,MIC,Escherichia coli 078,0.025 µg/mL
same,MIC,[8],0.391 µg/mL
same,MIC,[9],0.049 µg/mL
same,MIC,Salmonella typhimurium,0.049 µg/mL
same,MIC Range,Clostridium difficile,2 to 4 µg/mL
same,MIC50,Clostridium difficile; Clostridioides difficile,4 µg/mL
same,MIC90,Clostridium difficile; Clostridioides difficile,4 µg/mL
same,MIC50,Moraxella catarrhalis,0.03 µg/mL
same,MIC90,Moraxella catarrhalis,0.06 µg/mL
same,MIC Range,Moraxella catarrhalis,0.015 to 0.06 µg/mL
